Results published in US7186727B2, “Pyridyl-substituted spiro-hydantoin compounds and use thereof” (Bristol-Myers Squibb Company, priority 2004, dated 2007).

Assay: Microsomal liver assay (rate of oxidative metabolism)
Type: in vitro ADME
Conditions: human liver microsomes; 3 μM test compound, 1 mg/mL microsomal proteins, 37° C.
Method: Mouse and rat liver microsomes were purchased from XenoTech LLC (Kansas City, Kans.), and human liver microsomes were obtained from BD Gentest (Woburn, Mass.).
The oxidative metabolism in liver microsomes of various species was studied under the following condition: 3 μM test compound (organic solvent content <0.1%), 1 mg/mL microsomal proteins, 1 mM β-nicotinamide adenine dinucleotide phosphase (β-NADPH), 100 mM phosphate buffer (pH 7.4), and 6.7 MM magnesium chloride. The reaction (n=3) was initiated by the addition of NADPH followed by incubation at 37° C. for 20 min. Aliquots of samples (0.1 mL) were taken at 0, 5, and 20 min, and the reaction was quenched by the addition of three volumes of acetonitrile. Samples were stored at −20° C. until analysis.
The rate of oxidation in liver microsomes was determined from the following equation: rate (nmol/min/mg protein)=k*C0/Cprotein, where k (1/min) is the turnover rate constant estimated from non-linear regression of the percent compound remaining (y)-time (t) curve using the equation y=y0*exp(−k*t); C0 is initial drug concentration (μM), and Cprotein is microsomal protein concentration (mg/mL).
Rates of metabolism are “binned” (classified) as follows: […]

rate of metabolism: 0.2 nmol/min/mg
SMILES: CN1C(=O)N(c2cc(Cl)cc(Cl)c2)C(=O)[C@]12CN(c1ccccn1)C[C@H]2c1ccc(C#N)cc1 (relative stereo) [4-[(5S*,9R *)-3-(3,5-dichlorophenyl)-1-methyl-2,4-dioxo-7-pyridin-2-yl-1,3,7-triazaspiro[4.4]non-9-yl]-benzonitrile]
